Measurements published in US20100130526A1, “Methods for Disease Therapy” (priority 2008, published 2010).

Assays:
Format in all cases: in vivo, human
KPNA1 mRNA = assay: Microarray analysis of KPNA1 mRNA expression in PBMC of malaria patients before and after chloroquine therapy; details: disease-decreased level (3.9-fold), p=0.0015, data set GSE5418
From the text: (§1) (See FIG. 12). […] (See FIG. 12).

NLRP1 mRNA = assay: Microarray analysis of NLRP1 mRNA expression in PBMC of malaria patients before and after chloroquine therapy; details: disease-decreased level (1.4-fold), p=0.016, data set GSE5418
From the text: as §1

NLRP3 mRNA = assay: Microarray analysis of NLRP3 mRNA expression in PBMC of malaria patients before and after chloroquine therapy; details: disease-increased level (2.7-fold), p=0.024, data set GSE5418
From the text: as §1

KPNA6 mRNA = assay: Microarray analysis of KPNA6 mRNA expression in PBMC of malaria patients before and after chloroquine therapy; details: data set GSE5418
From the text: as §1

[1] = tested on: principal components of nuclear import and inflammasome pathways; assay: Gene expression phenotypes of nuclear import and inflammasome pathways in PBMC of chloroquine-treated malaria patients; details: PBMC of malaria patients treated with chloroquine

With CCN(CC)CCCC(C)Nc1ccnc2cc(Cl)ccc12 (centres unmarked) [chloroquine] the “KPNA1 mRNA expression elevated after chloroquine therapy” value (KPNA1 mRNA) was 66%, the “NLRP1 mRNA expression elevated after chloroquine therapy” value (NLRP1 mRNA) was 13% and the “NLRP3 mRNA expression reduced after chloroquine therapy” value (NLRP3 mRNA) was 57%. The “KPNA6 mRNA expression change after chloroquine therapy” value (KPNA6 mRNA) was “do not manifest statistically significant changes” and the “Effect on aberrant disease-associated gene expression phenotypes (KPNA1, NLRP1, NLRP3)” value [1] was “partial reversal of the aberrant gene expression phenotypes”.
